Laboratory results as given in ChEMBL document CHEMBL5465560, “Selectivity Literature for EUbOPEN Chemogenomic Library” (2024).

Columns and labels:
[1] = target: Cyclin-dependent kinase 18 (Homo sapiens) (UniProt Q07002); settings: at 10 µM
[2] = target: Serine/threonine-protein kinase WNK1 (Homo sapiens) (UniProt Q9H4A3); test: Selectivity interaction (Kinase panel (DSF assay)) EUB0001559a WNK1
[3] = target: RAC-beta serine/threonine-protein kinase (Homo sapiens) (UniProt P31751); test: Selectivity interaction (KinomeScan (DiscoverX)) EUB0000655a AKT2; settings: at 10 µM
Chain of RAC-beta serine/threonine-protein kinase (Homo sapiens) (P31751 whole entry): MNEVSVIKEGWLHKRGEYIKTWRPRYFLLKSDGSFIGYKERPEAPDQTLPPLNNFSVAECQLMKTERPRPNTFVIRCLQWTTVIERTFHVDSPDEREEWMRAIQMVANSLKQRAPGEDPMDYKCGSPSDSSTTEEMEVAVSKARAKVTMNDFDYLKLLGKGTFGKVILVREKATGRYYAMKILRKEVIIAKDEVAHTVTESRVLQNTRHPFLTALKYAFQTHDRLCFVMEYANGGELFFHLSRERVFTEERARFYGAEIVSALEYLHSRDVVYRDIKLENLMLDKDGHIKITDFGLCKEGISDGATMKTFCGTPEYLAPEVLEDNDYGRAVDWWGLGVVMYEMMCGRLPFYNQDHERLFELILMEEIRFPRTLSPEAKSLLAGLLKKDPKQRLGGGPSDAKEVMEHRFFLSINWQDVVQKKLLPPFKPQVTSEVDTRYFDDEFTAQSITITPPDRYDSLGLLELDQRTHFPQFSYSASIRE

[4] = target: Tyrosine-protein kinase Yes (Homo sapiens) (UniProt P07947); test: Selectivity interaction (KinomeScan (DiscoverX)) EUB0000618a YES1; settings: at 10 µM
Chain of Tyrosine-protein kinase Yes (Homo sapiens) (P07947 2-543 limits assumed): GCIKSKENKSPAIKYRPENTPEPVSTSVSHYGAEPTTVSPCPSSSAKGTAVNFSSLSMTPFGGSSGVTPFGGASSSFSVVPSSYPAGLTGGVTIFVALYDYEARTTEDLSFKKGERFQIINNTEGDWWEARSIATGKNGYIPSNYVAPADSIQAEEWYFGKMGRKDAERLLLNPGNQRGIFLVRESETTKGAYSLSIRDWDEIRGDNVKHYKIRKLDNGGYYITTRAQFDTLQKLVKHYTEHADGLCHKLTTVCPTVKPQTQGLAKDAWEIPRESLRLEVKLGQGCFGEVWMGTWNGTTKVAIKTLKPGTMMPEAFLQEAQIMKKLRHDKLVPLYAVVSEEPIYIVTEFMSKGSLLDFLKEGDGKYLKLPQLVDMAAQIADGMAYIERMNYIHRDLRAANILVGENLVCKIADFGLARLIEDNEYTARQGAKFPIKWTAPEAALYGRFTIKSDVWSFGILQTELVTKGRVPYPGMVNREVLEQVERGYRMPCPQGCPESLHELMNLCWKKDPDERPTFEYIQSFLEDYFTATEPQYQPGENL

[5] = target: Phosphatidylinositol 4-phosphate 5-kinase type-1 gamma (Homo sapiens) (UniProt O60331); test: Selectivity interaction (KinomeScan (DiscoverX)) EUB0001619a PIP5K1C; settings: at 1 µM
Chain of Phosphatidylinositol 4-phosphate 5-kinase type-1 gamma (Homo sapiens) (O60331 whole entry): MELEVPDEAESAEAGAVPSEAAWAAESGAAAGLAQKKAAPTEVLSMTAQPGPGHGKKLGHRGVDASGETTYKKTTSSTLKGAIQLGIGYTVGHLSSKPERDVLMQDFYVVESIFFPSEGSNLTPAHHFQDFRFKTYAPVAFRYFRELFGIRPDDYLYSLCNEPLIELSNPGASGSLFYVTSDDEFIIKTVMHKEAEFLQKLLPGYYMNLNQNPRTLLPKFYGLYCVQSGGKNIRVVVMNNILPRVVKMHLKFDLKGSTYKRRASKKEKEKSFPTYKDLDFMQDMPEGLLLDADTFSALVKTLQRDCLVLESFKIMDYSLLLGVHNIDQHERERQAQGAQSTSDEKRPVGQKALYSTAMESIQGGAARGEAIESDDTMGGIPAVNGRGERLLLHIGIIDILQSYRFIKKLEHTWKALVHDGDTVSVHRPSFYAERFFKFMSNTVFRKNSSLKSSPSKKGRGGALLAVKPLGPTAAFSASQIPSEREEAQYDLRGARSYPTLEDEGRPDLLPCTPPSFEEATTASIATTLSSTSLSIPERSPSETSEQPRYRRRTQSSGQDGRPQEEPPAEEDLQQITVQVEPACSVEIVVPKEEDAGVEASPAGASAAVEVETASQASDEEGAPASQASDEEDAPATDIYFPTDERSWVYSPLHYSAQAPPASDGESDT

[6] = target: Mitogen-activated protein kinase kinase kinase 20 (Homo sapiens) (UniProt Q9NYL2); test: Selectivity interaction (ActivX KiNativ screen (kinase selectivity in THP-1 cell lysates)) EUB0000639a MAP3K20; format: subcellular; settings: lysate
Chain of Mitogen-activated protein kinase kinase kinase 20 (Homo sapiens) (Q9NYL2 2-800 limits assumed): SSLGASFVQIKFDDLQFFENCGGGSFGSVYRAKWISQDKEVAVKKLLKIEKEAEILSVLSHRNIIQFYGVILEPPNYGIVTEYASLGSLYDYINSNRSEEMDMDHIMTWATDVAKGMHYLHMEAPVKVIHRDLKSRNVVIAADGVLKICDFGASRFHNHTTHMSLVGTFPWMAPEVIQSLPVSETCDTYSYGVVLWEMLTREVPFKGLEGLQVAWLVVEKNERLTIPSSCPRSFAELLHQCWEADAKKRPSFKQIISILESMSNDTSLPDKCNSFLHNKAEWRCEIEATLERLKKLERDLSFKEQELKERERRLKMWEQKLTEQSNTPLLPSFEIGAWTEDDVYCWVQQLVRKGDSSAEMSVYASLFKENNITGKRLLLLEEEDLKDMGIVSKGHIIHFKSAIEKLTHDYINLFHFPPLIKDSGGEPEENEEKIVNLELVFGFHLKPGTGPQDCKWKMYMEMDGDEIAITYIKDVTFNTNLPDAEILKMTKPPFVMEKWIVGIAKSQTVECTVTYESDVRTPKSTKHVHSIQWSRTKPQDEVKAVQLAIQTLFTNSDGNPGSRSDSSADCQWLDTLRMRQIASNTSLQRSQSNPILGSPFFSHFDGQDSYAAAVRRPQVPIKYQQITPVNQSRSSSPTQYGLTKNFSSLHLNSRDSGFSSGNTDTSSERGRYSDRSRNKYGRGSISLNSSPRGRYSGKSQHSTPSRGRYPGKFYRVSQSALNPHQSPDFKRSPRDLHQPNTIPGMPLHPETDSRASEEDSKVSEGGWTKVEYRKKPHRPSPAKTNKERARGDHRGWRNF

[7] = target: T1, Mitogen-activated protein kinase kinase kinase 15 (Homo sapiens) (UniProt Q6ZN16); test: Selectivity interaction (ActivX KiNativ screen (kinase selectivity in THP-1 cell lysates)) EUB0000639a MAP3K15; format: subcellular; settings: lysate
T1 sequence (whole entry): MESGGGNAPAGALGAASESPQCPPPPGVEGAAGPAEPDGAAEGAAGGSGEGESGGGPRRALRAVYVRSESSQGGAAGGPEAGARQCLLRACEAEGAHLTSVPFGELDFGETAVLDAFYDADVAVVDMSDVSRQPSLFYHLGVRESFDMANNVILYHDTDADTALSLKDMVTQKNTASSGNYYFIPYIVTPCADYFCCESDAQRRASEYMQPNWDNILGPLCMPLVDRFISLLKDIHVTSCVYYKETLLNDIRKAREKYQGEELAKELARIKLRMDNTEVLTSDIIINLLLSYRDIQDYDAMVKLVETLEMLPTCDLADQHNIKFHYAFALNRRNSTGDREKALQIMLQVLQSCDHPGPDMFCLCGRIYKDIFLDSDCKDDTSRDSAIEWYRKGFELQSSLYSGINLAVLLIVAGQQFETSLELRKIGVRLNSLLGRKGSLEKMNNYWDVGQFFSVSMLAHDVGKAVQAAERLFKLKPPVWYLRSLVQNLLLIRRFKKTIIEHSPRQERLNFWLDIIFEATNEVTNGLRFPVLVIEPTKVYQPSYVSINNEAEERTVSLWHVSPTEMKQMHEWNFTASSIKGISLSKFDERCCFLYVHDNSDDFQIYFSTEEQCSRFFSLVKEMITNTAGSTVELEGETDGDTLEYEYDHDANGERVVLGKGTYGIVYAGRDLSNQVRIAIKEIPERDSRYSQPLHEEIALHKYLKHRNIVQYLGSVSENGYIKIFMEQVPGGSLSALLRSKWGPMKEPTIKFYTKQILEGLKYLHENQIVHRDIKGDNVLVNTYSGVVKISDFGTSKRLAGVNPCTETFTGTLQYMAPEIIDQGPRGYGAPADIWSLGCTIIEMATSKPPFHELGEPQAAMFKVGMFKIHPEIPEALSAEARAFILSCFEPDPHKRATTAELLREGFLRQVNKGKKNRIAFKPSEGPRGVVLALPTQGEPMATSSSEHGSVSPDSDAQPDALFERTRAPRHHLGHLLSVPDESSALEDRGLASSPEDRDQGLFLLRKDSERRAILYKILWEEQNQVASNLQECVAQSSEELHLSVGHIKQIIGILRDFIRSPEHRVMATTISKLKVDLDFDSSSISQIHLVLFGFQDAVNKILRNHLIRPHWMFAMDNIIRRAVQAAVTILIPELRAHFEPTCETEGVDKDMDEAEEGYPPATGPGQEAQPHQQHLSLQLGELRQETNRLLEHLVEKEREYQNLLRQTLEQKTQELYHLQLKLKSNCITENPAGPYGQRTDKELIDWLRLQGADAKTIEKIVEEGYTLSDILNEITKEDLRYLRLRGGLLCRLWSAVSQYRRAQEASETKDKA

[8] = target: T2, Serine/threonine-protein kinase PLK4 (Homo sapiens) (UniProt O00444); test: Selectivity interaction (KinomeScan (DiscoverX)) EUB0000695a PLK4; settings: at 100 nM
T2 sequence (whole entry): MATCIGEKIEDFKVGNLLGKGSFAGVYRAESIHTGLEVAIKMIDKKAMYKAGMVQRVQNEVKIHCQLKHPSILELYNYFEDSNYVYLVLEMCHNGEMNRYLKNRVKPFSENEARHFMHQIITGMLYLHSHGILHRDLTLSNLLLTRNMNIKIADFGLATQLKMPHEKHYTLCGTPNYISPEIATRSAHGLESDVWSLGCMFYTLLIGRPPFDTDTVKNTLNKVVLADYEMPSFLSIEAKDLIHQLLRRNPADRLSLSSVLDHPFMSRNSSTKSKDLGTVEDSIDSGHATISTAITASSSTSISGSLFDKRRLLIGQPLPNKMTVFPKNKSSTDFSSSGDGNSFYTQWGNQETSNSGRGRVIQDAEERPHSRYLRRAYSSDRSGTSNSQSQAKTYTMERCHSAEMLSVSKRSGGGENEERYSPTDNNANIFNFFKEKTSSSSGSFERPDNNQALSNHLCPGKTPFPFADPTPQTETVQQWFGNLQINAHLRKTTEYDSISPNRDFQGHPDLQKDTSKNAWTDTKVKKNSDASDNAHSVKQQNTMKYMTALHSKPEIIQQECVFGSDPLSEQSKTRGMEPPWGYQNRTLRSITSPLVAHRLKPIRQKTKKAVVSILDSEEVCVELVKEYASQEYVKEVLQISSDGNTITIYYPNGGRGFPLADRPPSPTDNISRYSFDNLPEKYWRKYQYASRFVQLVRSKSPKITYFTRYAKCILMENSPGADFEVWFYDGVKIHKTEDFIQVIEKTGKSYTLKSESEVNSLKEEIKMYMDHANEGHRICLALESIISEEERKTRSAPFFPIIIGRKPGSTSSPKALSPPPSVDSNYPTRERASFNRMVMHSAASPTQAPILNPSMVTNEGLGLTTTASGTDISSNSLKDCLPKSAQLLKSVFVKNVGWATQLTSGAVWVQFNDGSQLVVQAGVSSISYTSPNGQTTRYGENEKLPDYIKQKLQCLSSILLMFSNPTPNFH

Chain of Serine/threonine-protein kinase WNK1 (Homo sapiens) (Q9H4A3 whole entry, looked up): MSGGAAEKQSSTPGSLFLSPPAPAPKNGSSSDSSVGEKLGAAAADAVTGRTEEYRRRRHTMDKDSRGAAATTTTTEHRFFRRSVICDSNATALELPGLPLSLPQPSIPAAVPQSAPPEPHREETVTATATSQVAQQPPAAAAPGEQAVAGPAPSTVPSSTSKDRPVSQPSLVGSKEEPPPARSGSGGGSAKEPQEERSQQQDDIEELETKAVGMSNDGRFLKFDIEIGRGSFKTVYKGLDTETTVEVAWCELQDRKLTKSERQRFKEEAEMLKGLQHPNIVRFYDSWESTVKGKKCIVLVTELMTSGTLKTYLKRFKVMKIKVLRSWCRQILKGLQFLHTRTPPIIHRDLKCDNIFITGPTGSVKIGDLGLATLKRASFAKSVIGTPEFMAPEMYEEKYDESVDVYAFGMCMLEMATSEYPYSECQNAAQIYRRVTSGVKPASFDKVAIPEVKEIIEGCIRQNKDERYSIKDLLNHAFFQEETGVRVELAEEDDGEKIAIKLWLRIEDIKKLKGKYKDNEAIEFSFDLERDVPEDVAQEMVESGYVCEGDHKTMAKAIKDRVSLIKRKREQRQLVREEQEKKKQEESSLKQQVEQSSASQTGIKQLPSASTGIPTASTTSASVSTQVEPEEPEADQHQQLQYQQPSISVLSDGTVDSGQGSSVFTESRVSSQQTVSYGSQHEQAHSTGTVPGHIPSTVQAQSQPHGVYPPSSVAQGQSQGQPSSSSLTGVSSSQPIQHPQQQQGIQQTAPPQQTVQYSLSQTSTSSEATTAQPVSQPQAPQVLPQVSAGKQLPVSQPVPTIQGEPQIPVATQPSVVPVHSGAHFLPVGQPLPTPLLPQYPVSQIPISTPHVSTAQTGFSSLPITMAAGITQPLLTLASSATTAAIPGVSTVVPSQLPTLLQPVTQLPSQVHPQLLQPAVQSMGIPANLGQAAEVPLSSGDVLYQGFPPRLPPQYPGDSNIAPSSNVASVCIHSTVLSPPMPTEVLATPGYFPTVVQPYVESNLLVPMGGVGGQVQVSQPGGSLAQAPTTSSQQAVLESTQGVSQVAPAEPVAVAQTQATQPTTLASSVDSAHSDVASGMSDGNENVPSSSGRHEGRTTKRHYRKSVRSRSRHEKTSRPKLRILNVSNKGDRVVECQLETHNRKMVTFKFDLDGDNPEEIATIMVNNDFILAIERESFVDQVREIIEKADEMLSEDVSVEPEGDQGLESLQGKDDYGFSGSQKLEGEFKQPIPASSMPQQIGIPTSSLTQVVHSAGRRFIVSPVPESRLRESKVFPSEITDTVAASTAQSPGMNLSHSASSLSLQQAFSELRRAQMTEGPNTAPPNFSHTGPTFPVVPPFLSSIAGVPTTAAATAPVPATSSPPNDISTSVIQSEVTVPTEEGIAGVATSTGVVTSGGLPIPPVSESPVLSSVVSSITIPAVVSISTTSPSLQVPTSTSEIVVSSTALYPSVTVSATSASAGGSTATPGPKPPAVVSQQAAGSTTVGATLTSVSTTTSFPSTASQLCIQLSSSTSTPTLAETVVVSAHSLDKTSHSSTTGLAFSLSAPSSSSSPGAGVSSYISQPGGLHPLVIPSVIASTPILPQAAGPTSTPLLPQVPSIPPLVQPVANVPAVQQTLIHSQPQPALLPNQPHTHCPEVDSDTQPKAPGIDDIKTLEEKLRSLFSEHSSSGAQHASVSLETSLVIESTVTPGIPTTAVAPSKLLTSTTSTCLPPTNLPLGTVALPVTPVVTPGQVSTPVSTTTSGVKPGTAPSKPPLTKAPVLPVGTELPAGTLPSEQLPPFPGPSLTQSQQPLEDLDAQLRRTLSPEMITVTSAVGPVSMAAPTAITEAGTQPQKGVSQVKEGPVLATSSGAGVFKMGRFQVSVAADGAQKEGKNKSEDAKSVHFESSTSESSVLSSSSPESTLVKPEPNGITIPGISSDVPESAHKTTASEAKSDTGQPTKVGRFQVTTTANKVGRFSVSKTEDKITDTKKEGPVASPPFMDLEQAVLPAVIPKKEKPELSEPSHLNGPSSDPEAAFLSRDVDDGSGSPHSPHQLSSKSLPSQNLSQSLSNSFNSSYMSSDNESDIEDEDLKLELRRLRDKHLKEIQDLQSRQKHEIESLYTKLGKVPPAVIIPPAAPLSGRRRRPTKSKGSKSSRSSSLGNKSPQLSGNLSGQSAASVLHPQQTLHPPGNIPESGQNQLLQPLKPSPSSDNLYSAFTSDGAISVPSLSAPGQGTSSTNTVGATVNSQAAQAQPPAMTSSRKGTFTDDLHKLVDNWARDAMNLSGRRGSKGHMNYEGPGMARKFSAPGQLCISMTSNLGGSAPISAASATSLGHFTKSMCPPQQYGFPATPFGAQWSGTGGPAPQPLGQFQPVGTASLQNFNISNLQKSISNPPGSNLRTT

`CCN(CC)CCCCNc1ncc2cc(-c3cc(OC)cc(OC)c3)c(NC(=O)NC(C)(C)C)nc2n1` gave a % of control [1] of 100%.
`CN(C(=O)c1cnn2cccnc12)c1cc2c(cc1N1CCOCC1)C(=O)N(C[C@@H](F)C(C)(C)O)C2` showed a dTM [2] of -0.6 K.
In the case of `CN(C)CCOc1ccc(-c2nc(-c3ccncc3)c(-c3ccc4c(c3)CC/C4=N\O)[nH]2)cc1`, the % of control [3] is reported as 100%.
Compound `O[C@H]1CC[C@H](Nc2ncc3nc(Nc4c(F)cc(F)cc4F)n([C@H]4CCOC4)c3n2)CC1` has a % of control [4] of 98%.
In the case of `N#Cc1cccc(-c2c[nH]c3ncnc(N4CCOCC4)c23)c1`, the % of control [5] is reported as 70%.
In the case of `CC[C@@H]1[C@H](F)C(=O)N[C@@H]1COc1nccc2cc(C(N)=O)c(OC)cc12` [ZIMLOVISERTIB], the % of inhibition ([6]; at 0.01 µM) is reported as -7.8%, the % of inhibition ([6]; at 0.04 µM) is reported as -3.3% and the % of inhibition ([6]; at 0.2 µM) is reported as 9.5%. For the same compound, the % of inhibition ([6]; at 1 µM) was 12.2%, the % of inhibition ([6]; at 5 µM) was -6.6% and the % of inhibition ([7]; at 0.01 µM) was -12.1%. The % of inhibition ([7]; at 0.04 µM) was -3.2%, the % of inhibition ([7]; at 0.2 µM) was 0% and the % of inhibition ([7]; at 1 µM) was -6.5%. For the same compound, the % of inhibition ([7]; at 5 µM) was -21.9%.
Work on `Cc1cc(F)c(C(=O)Nc2cccc(-c3nncn3C(C)C)n2)cc1-n1cnc(C2CC2)c1` yielded a % of control [8] of 100%.
